Results from patent US20230024302A1, “2,3,5-TRISUBSTITUTED PYRAZOLO[1,5-A]PYRIMIDINE COMPOUNDS” (Arcus Biosciences, Inc., priority 2019, published 2023).
pIC50: −log10 of the molar value.

Key:
PI3Kγ (p120γ) = molecular target: T1, PI3Kγ (p120γ) (Homo sapiens, UniProt P48736); test: Inhibition of PI3K kinase activity (ADP Glo), PI3Kγ; settings: Table 1, p120γ, read-out: biochemical potency (PI3Kγ IC50)
T1 construct: purchased Promega V1761
Method: Compounds were evaluated to determine the potency with which they inhibited the kinase activity of the Class I PI3K subunits p110α/p85α (Promega, Cat #V1721), p110β/p85α (Promega, Cat #V1751), p120γ (Promega, Cat #V1761) and p110δ/p85α (Promega, Cat #V1771). Activity was determined as a function of ADP (adenosine diphosphate) generated from ATP consumed during the phosphorylation of Phosphatidylinositol 4,5-bisphosphate (PIP2) (Promega, Cat #V1701) to yield Phosphatidylinositol (3,4,5)-trisphosphate (PIP3). ADP levels in the assay mixture at the end of the reaction were quantitated using ADP Glo (Promega, Cat #V9103) according to the manufacturer's recommended protocol.
Enzyme was prepared for each of the PI3K subunits in 100 mM HEPES, pH 7.4, 100 mM NaCl, 6 mM MgCl2 and 0.05% BSA. p110α/p85α was prepared at 2 nM (2×), p110β/p85α was prepared at 7 nM (2×), p120γ was prepared at 8 nM (2×) and p110δ/p85α was prepared at 2 nM (2×). Five microliters of 2× enzyme dilution of each PI3K subunit were added to a 384-well white Opti-plates pre-dispensed with compound and allowed to incubate for 1 h at rt. A substrate mix containing 0.1 mg/ml (2×) of PIP2 and 50 μM (2×) ATP (Promega, Cat #V915) was prepared in 25 mM HEPES and 0.5 mM EGTA. Reactions were initiated by addition of 5 μl of 2× substrate mix to each well of the plates containing various PI3K isoforms and allowed to proceed for 60 min at rt. Ten microliters of ADP Glo reagent 1 were added to the wells of each plate and allowed to incubate at rt for 45 min according to the manufacturer's directions. Following incubation, 20 μl of ADP Glo reagent 2 was added to each plate and allowed to incubate for an additional 45 min. Luminescent signal, generated by ADP Glo, was quantified by reading on a Perkin Elmer Envision multimode reader. Compound potencies (IC50's) were determined using a standard 4-parameter fit non-linear regression fit.

PI3Kγ = molecular target: T2, PI3Kγ (Homo sapiens, UniProt P48736); test: PI3Kγ cellular assay in THP-1 cells (AKT pS473 AlphaLISA); assay type: cell-based; settings: Table 1, rhMCP-1 stimulated AKT pS473, read-out: cellular potency (PI3Kγ IC50)
T2 construct: host or cells: THP-1
T2 sequence (P48736 whole entry): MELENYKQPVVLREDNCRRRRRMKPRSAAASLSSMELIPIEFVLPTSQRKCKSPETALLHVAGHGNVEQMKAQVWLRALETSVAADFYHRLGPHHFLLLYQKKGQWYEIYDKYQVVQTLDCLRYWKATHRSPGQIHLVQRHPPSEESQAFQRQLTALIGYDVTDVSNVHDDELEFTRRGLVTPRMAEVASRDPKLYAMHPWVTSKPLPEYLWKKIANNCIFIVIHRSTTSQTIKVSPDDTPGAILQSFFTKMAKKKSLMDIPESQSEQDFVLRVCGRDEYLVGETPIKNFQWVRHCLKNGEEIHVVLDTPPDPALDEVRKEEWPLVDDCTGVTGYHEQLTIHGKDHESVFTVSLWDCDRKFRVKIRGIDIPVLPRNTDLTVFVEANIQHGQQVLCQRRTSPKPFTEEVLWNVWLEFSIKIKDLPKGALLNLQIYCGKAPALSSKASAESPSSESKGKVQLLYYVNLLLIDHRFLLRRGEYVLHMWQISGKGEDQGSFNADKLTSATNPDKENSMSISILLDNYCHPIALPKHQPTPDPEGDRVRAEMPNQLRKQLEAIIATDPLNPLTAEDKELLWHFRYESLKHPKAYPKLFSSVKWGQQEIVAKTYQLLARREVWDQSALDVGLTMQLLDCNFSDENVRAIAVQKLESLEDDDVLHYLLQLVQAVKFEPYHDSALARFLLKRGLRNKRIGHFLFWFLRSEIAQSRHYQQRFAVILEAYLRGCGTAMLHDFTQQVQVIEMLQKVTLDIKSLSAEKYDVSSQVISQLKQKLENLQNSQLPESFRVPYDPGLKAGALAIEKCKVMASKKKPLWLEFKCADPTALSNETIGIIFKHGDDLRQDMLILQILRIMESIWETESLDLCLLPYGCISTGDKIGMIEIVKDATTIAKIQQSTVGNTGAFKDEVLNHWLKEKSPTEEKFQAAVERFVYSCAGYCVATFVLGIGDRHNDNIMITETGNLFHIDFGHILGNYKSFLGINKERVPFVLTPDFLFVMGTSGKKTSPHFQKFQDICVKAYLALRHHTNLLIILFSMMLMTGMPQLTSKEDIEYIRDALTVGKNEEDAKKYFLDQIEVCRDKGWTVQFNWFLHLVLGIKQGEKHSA
Method: Twenty microliters of serum starved THP-1 cells were added to the compound plate in serum free DMEM at a density of 9×10^6 cells per ml. Final assay conditions comprised 1.8×10^5 THP-1 cells per well with test compounds in 2% DMSO across a concentration range from 4 nM to 30 μM. […] Briefly, 10 μL of 4× lysis buffer was added to cells after stimulation. Following 60 min incubation at rt, 10 μL of cell lysate was transferred to a fresh 384-well Opti-plate to which 5 μL of AlphaLisa acceptor beads and 5 μL of AlphaLisa donor beads had been added. […] PI3Kγ activity was evaluated as a correlate of endogenous AKT phosphorylation levels. Percentage maximum activity in each test well was calculated based on DMSO (100% activity) and positive control treated cell wells (0% activity). The potencies (IC50's) of test compounds were determined using a standard 4-parameter fit non-linear regression fit.

T1 sequence (P48736 whole entry): as above

Row | SMILES | pIC50 (PI3Kγ (p120γ)) | pIC50 (PI3Kγ)
1 | C[C@@H](C1CC1)N1Cc2cc(-c3ccn4nc(N)c(C(=O)N[C@@H]5COC[C@H]5O)c4n3)cc(OC(F)(F)F)c2C1=O [Example 38, 2-Amino-5-{2-[(1S)-1-cyclopropylethyl]-1-oxo-7-(trifluoromethoxy)-2,3-dihydro-1H-isoindol-5-yl}-N-[(3R,4S)-4-hydroxyoxolan-3-yl]pyrazolo[1,5-a]pyrimidine-3-carboxamide] | > 7.00 | > 7.00
2 | C[C@@H](C1CC1)N1Cc2cc(-c3ccn4nc(N)c(C(N)=O)c4n3)cc(OC(F)(F)F)c2C1=O [Example 39, 5-{2-[(S)-1-Cyclopropylethyl]-7-trifluoromethoxy-5-isoindolinoyl}-2-amino-1,4,7a-triaza-3-indenecarboxamide] | > 7.00 | > 7.00
3 | C[C@@H](C1CC1)N1Cc2cc(-c3ccn4nc(N)c(C(=O)Nc5ccncc5)c4n3)cc(OC(F)(F)F)c2C1=O [Example 40, (S)-2-Amino-5-(2-(1-cyclopropylethyl)-1-oxo-7-(trifluoromethoxy)isoindolin-5-yl)-N-(pyridin-4-yl)pyrazolo[1,5-a]pyrimidine-3-carboxamide] | > 7.00 | > 7.00
4 | C[C@@H](C1CC1)N1Cc2cc(-c3ccn4nc(N)c(C(=O)Nc5cccnc5)c4n3)cc(OC(F)(F)F)c2C1=O [Example 41, (S)-2-Amino-5-(2-(1-cyclopropylethyl)-1-oxo-7-(trifluoromethoxy)isoindolin-5-yl)-N-(pyridin-3-yl)pyrazolo[1,5-a]pyrimidine-3-carboxamide] | > 7.00 | > 7.00
5 | C[C@@H](C1CC1)N1Cc2cc(-c3ccn4nc(N)c(C(=O)Nc5cncc(F)c5)c4n3)cc(OC(F)(F)F)c2C1=O [Example 42, 2-Amino-5-{2-[(1S)-1-cyclopropylethyl]-1-oxo-7-(trifluoromethoxy)-2,3-dihydro-1H-isoindol-5-yl}-N-(5-fluoropyridin-3-yl)pyrazolo[1,5-a]pyrimidine-3-carboxamide] | > 7.00 | > 7.00
6 | COc1cncc(NC(=O)c2c(N)nn3ccc(-c4cc5c(c(OC(F)(F)F)c4)C(=O)N([C@@H](C)C4CC4)C5)nc23)c1 [Example 43, 2-Amino-5-{2-[(1S)-1-cyclopropylethyl]-1-oxo-7-(trifluoromethoxy)-2,3-dihydro-1H-isoindol-5-yl}-N-(5-methoxypyridin-3-yl)pyrazolo[1,5-a]pyrimidine-3-carboxamide] | > 7.00 | > 7.00
7 | Cc1ncccc1NC(=O)c1c(N)nn2ccc(-c3cc4c(c(OC(F)(F)F)c3)C(=O)N([C@@H](C)C3CC3)C4)nc12 [Example 44, 2-[(S)-1-Cyclopropylethyl]-5-{2-amino-3-[(2-methyl-3-pyridylamino)carbonyl]-1,4,7a-triaza-5-indenyl}-7-trifluoromethoxy-1-isoindolinone] | > 7.00 | > 7.00
8 | Cc1ccc(NC(=O)c2c(N)nn3ccc(-c4cc5c(c(OC(F)(F)F)c4)C(=O)N([C@@H](C)C4CC4)C5)nc23)cn1 [Example 45, 2-[(S)-1-Cyclopropylethyl]-5-{2-amino-3-[(6-methyl-3-pyridylamino)carbonyl]-1,4,7a-triaza-5-indenyl}-7-trifluoromethoxy-1-isoindolinone] | > 7.00 | > 7.00
9 | C[C@@H](C1CC1)N1Cc2cc(-c3ccn4nc(N)c(C(=O)Nc5ccc(N)nc5)c4n3)cc(OC(F)(F)F)c2C1=O [Example 46, 2-[(S)-1-Cyclopropylethyl]-5-{2-amino-3-[(6-amino-3-pyridylamino)carbonyl]-1,4,7a-triaza-5-indenyl}-7-trifluoromethoxy-1-isoindolinone] | > 7.00 | > 7.00
10 | Cc1ccncc1NC(=O)c1c(N)nn2ccc(-c3cc4c(c(OC(F)(F)F)c3)C(=O)N([C@@H](C)C3CC3)C4)nc12 [Example 47, (S)-2-Amino-5-(2-(1-cyclopropylethyl)-1-oxo-7-(trifluoromethoxy)isoindolin-5-yl)-N-(4-methylpyridin-3-yl)pyrazolo[1,5-a]pyrimidine-3-carboxamide] | > 7.00 | > 7.00

Results, then the compound that gave them:

Row | pIC50 (PI3Kγ (p120γ)) | pIC50 (PI3Kγ) | SMILES
11 | > 7.00 | > 7.00 | COc1ccncc1NC(=O)c1c(N)nn2ccc(-c3cc4c(c(OC(F)(F)F)c3)C(=O)N([C@@H](C)C3CC3)C4)nc12 [Example 48, (S)-2-Amino-5-(2-(1-cyclopropylethyl)-1-oxo-7-(trifluoromethoxy)isoindolin-5-yl)-N-(4-methoxypyridin-3-yl)pyrazolo[1,5-a]pyrimidine-3-carboxamide]
12 | > 7.00 | > 7.00 | C[C@@H](C1CC1)N1Cc2cc(-c3ccn4nc(N)c(C(=O)N[C@H]5CCNC5=O)c4n3)cc(C(F)(F)F)c2C1=O [Example 49, 2-Amino-5-{2-[(1S)-1-cyclopropylethyl]-1-oxo-7-(trifluoromethyl)-2,3-dihydro-1H-isoindol-5-yl}-N-[(3S)-2-oxopyrrolidin-3-yl]pyrazolo[1,5-a]pyrimidine-3-carboxamide]
13 | > 7.00 | > 7.00 | C[C@H](CO)NC(=O)c1c(N)nn2ccc(-c3cc4c(c(C(F)(F)F)c3)C(=O)N([C@@H](C)C3CC3)C4)nc12 [Example 50, 5-(3-{[(R)-2-Hydroxy-1-methylethylamino]carbonyl}-2-amino-1,4,7a-triaza-5-indenyl)-2-[(S)-1-cyclopropylethyl]-7-(trifluoromethyl)-1-isoindolinone]
14 | > 7.00 | > 7.00 | C[C@@H](C1CC1)N1Cc2cc(-c3ccn4nc(N)c(C(=O)NCCO)c4n3)cc(C(F)(F)F)c2C1=O [Example 51, 2-[(S)-1-Cyclopropylethyl]-5-{2-amino-3-[(2-hydroxyethylamino)carbonyl]-1,4,7a-triaza-5-indenyl}-7-(trifluoromethyl)-1-isoindolinone]
15 | > 7.00 | > 7.00 | C[C@@H](C1CC1)N1Cc2cc(-c3ccn4nc(N)c(C(=O)NCCCO)c4n3)cc(C(F)(F)F)c2C1=O [Example 52, 2-[(S)-1-Cyclopropylethyl]-5-{2-amino-3-[(3-hydroxypropylamino)carbonyl]-1,4,7a-triaza-5-indenyl}-7-(trifluoromethyl)-1-isoindolinone]
16 | > 7.00 | > 7.00 | C[C@@H](C1CC1)N1Cc2cc(-c3ccn4nc(N)c(C(=O)NC5COC5)c4n3)cc(C(F)(F)F)c2C1=O [Example 53, 2-[(S)-1-Cyclopropylethyl]-5-{2-amino-3-[(3-oxetanylamino)carbonyl]-1,4,7a-triaza-5-indenyl}-7-(trifluoromethyl)-1-isoindolinone]
17 | > 7.00 | > 7.00 | C[C@@H](C1CC1)N1Cc2cc(-c3ccn4nc(N)c(C(=O)N[C@H]5CC[C@@](C)(O)CC5)c4n3)cc(C(F)(F)F)c2C1=O [Example 54, 2-[(S)-1-Cyclopropylethyl]-5-{2-amino-3-[(cis-4-hydroxy-4-methylcyclohexylamino)carbonyl]-1,4,7a-triaza-5-indenyl}-7-(trifluoromethyl)-1-isoindolinone]
18 | > 7.00 | > 7.00 | C[C@@H](C1CC1)N1Cc2cc(-c3ccn4nc(N)c(C(=O)N[C@H]5CC[C@](O)(C(F)(F)F)CC5)c4n3)cc(C(F)(F)F)c2C1=O [Example 55, 2-[(S)-1-Cyclopropylethyl]-5-(2-amino-3-{[cis-4-hydroxy-4-(trifluoromethyl)cyclohexylamino]carbonyl}-1,4,7a-triaza-5-indenyl)-7-(trifluoromethyl)-1-isoindolinone]
19 | > 7.00 | > 7.00 | C[C@@H](C1CC1)N1Cc2cc(-c3ccn4nc(N)c(C(=O)NC5(C)COC5)c4n3)cc(C(F)(F)F)c2C1=O [Example 56, 2-[(S)-1-Cyclopropylethyl]-5-{2-amino-3-[(3-methyl-3-oxetanylamino)carbonyl]-1,4,7a-triaza-5-indenyl}-7-(trifluoromethyl)-1-isoindolinone]
